Experimental data as given in EP0908457B1, “3-(1,2-benzisothiazol- and isoxazol-5-Y1)-2,4(1H,3H)-pyrimidinedione or thione and 3-(1,2-benzisothiazol- and isoxazol-5-y1)-4(3H)-pyrimidinone or thione herbicidal agents” (BASF AKTIENGESELLSCHAFT, priority 1997, dated 1999).

How the values were obtained:
Cyperus iria = experiment: Preemergence weed control under flooded paddy conditions, CYPIR (Rice Flatsedge); type: in vivo; conditions: flooded paddy; for CYPIR: herbicidal effect rating 0-9, three to four weeks after treatment; for herbicidal effect rating, CYPIR: rated three to four weeks after treatment; on herbicidal effect rating, CYPIR: meaning of each grade not given here
[1] = test system: Echinochloa oryzoides (Ard.) Fritsch.; experiment: Preemergence weed control under flooded paddy conditions, ECHORC (Watergrass (Calif.)); type: in vivo; conditions: flooded paddy; for ECHORC: herbicidal effect rating 0-9, three to four weeks after treatment; for herbicidal effect rating, ECHORC: rated three to four weeks after treatment; on herbicidal effect rating, ECHORC: meaning of each grade not given here
[2] = test system: Monochoria vaginalis, Presl.; experiment: Preemergence weed control under flooded paddy conditions, MOOVA (Monochoria); type: in vivo; conditions: preemergence weeds, flooded paddy, herbicidal effect rating 0-9, three to four weeks after treatment
[3] = test system: Cyperus serotinus, Rottb.; experiment: Preemergence weed control under flooded paddy conditions, CYPSE (Flatsedge); type: in vivo; conditions: for CYPSE: herbicidal effect rating 0-9, three to four weeks after treatment; for herbicidal effect rating, CYPSE: rated three to four weeks after treatment; on herbicidal effect rating, CYPSE: meaning of each grade not given here
[4] = test system: Oryza sativa, (L.) Tebonnet; experiment: Rice tolerance to post-transplant applications under flooded paddy conditions (Example 187), ORYSAT (Rice, Tebonnet); conditions: for ORYSAT: herbicidal effect rating 0-9, three to four weeks after treatment; for herbicidal effect rating ORYSAT: rated three to four weeks after treatment; on herbicidal effect rating ORYSAT: meaning of each grade not given here
Sagittaria pygmaea, L. = experiment: Preemergence weed control under flooded paddy conditions, SAGPY (Arrowhead (Pygmaea)); type: in vivo; conditions: flooded paddy, rated three to four weeks after treatment; further: meaning of each grade not given here
[5] = 0.0320 kg/ha, preemergence weeds
[6] = 0.0620 kg/ha, preemergence weeds
[7] = 0.1250 kg/ha, preemergence weeds
[8] = 0.2500 kg/ha, preemergence weeds
[9] = Rate 0.0320 kg/ha, preemergence
[10] = Rate 0.0620 kg/ha, preemergence
[11] = Rate 0.1250 kg/ha, preemergence
[12] = Rate 0.2500 kg/ha, preemergence
[13] = Rate 0.0320 kg/ha, preemergence weeds
[14] = Rate 0.0620 kg/ha, preemergence weeds
[15] = Rate 0.1250 kg/ha, preemergence weeds
[16] = Rate 0.2500 kg/ha, preemergence weeds

SMILES | herbicidal effect rating ORYSAT ([4]; Rate 0.0320 kg/ha) | herbicidal effect rating ORYSAT ([4]; Rate 0.0620 kg/ha) | herbicidal effect rating ORYSAT ([4]; Rate 0.1250 kg/ha) | herbicidal effect rating ORYSAT ([4]; Rate 0.2500 kg/ha) | herbicidal effect rating, CYPIR (Cyperus iria; [13]) | herbicidal effect rating, CYPIR (Cyperus iria; [14]) | herbicidal effect rating, CYPIR (Cyperus iria; [15]) | herbicidal effect rating, CYPIR (Cyperus iria; [16]) | herbicidal effect rating, ECHORC [1, 13] | herbicidal effect rating, ECHORC [1, 14] | herbicidal effect rating, ECHORC [1, 15] | herbicidal effect rating, ECHORC [1, 16] | herbicidal effect rating, CYPSE [3, 13] | herbicidal effect rating, CYPSE [3, 14] | herbicidal effect rating, CYPSE [3, 15] | herbicidal effect rating, CYPSE [3, 16] | herbicidal effect rating, SAGPY (Sagittaria pygmaea, L.; [13]) | herbicidal effect rating, SAGPY (Sagittaria pygmaea, L.; [14]) | herbicidal effect rating, SAGPY (Sagittaria pygmaea, L.; [15]) | herbicidal effect rating, SAGPY (Sagittaria pygmaea, L.; [16]) | other results
COCCOC(=O)c1nsc2ccc(-n3c(=O)cc(C(F)(F)F)n(C)c3=O)cc12 [Example 411, 1,2-Benzisothiazole-3-carboxylic acid, 5-[3,6-dihydro-3-methyl-2,6-dioxo-4-(trifluoromethyl)-1(2H)-pyrimidinyl]-, 2-methoxyethyl ester] |  |  |  |  |  |  |  |  |  |  |  |  |  |  |  |  |  |  |  |  | CYPIR (Cyperus iria; [5]): 0.0; CYPIR (Cyperus iria; [6]): 2.0; CYPIR (Cyperus iria; [7]): 3.0; CYPIR (Cyperus iria; [8]): 9.0; ECHORC [1, 5]: 0.0; ECHORC [1, 6]: 0.0; ECHORC [1, 7]: 0.0; ECHORC [1, 8]: 6.0; MOOVA ([2]; 0.0320 kg/ha): 9.0; MOOVA ([2]; 0.0620 kg/ha): 9.0; MOOVA ([2]; 0.1250 kg/ha): 9.0; MOOVA ([2]; 0.2500 kg/ha): 9.0; CYPSE [3, 5]: 0.0; CYPSE [3, 6]: 2.0; CYPSE [3, 7]: 7.0; CYPSE [3, 8]: 9.0; ORYSAT ([4]; 0.0320 kg/ha): 0.0; ORYSAT ([4]; 0.0620 kg/ha): 0.0; ORYSAT ([4]; 0.1250 kg/ha): 2.0; ORYSAT ([4]; 0.2500 kg/ha): 5.0
C=CCOC(C)c1nsc2ccc(-n3c(=O)cc(C(F)(F)F)n(C)c3=O)cc12 (stereo not drawn) [Example 351, 2,4(1H,3H)-Pyrimidinedione, 3-{3-[1-(allyloxy)ethyl]-1,2-benzisothiazol-5-yl}-1-methyl-6-(trifluoromethyl)-] | 7.0 | 7.0 | 7.0 | 9.0 |  |  |  |  |  |  |  |  |  |  |  |  |  |  |  |  | herbicidal effect rating, CYPIR (Cyperus iria; [9]): 6.0; herbicidal effect rating, CYPIR (Cyperus iria; [10]): 7.0; herbicidal effect rating, CYPIR (Cyperus iria; [11]): 7.0; herbicidal effect rating, CYPIR (Cyperus iria; [12]): 9.0; herbicidal effect rating, ECHORC [1, 9]: 5.0; herbicidal effect rating, ECHORC [1, 10]: 6.0; herbicidal effect rating, ECHORC [1, 11]: 6.0; herbicidal effect rating, ECHORC [1, 12]: 7.0; herbicidal effect rating, CYPSE [3, 9]: 0.0; herbicidal effect rating, CYPSE [3, 10]: 6.0; herbicidal effect rating, CYPSE [3, 11]: 6.0; herbicidal effect rating, CYPSE [3, 12]: 8.0; herbicidal effect rating, SAGPY (Sagittaria pygmaea, L.; [9]): 5.0; herbicidal effect rating, SAGPY (Sagittaria pygmaea, L.; [10]): 6.0; herbicidal effect rating, SAGPY (Sagittaria pygmaea, L.; [11]): 7.0; herbicidal effect rating, SAGPY (Sagittaria pygmaea, L.; [12]): 7.0
Cn1c(C(F)(F)F)cc(=O)n(-c2ccc3snc(C(=O)CBr)c3c2)c1=O [Example 337, 2,4(1H,3H)-Pyrimidinedione, 3-[3-(bromoacetyl)-1,2-benzisothiazol-5-yl]-1-methyl-6-(trifluoromethyl)-] | 3.0 | 3.0 | 3.0 | 3.0 | 0.0 | 0.0 | 6.0 | 9.0 | 2.0 | 2.0 | 6.0 | 6.0 | 0.0 | 0.0 | 0.0 | 9.0 | 0.0 | 0.0 | 0.0 | 3.0 | 
COC(=O)C(C)Oc1ccc(OC)cc1-c1nsc2ccc(-n3c(=O)cc(C(F)(F)F)n(C)c3=O)cc12 (stereo not drawn) [Example 348, Propionic acid, 2-{2-{5-[3,6-dihydro-3-methyl-2,6-dioxo-4-(trifluoromethyl)-1(2H)-pyrimidinyl]-1,2-benzisothiazol-3-yl}-4-methoxyphenoxy}-, methyl ester] | 2.0 | 3.0 | 4.0 | 5.0 | 0.0 | 0.0 | 6.0 | 9.0 | 6.0 | 6.0 | 7.0 | 9.0 | 0.0 | 0.0 | 0.0 | 0.0 | 4.0 | 6.0 | 7.0 | 9.0 | 
CSc1ccc(C)cc1-c1nsc2ccc(-n3c(=O)cc(C(F)(F)F)n(C)c3=O)cc12 [Example 342, 2,4(1H,3H)-Pyrimidinedione, 1-methyl-3-{3-[6-(methylthio)-m-tolyl]-1,2-benzisothiazol-5-yl}-6-(trifluoromethyl)-] | 0.0 | 0.0 | 2.0 | 3.0 | 0.0 | 0.0 | 4.0 | 8.0 | 4.0 | 4.0 | 7.0 | 7.0 | 0.0 | 0.0 | 0.0 | 9.0 | 0.0 | 0.0 | 0.0 | 2.0 | 
CCC(=O)COC(=O)COc1ccc(C)cc1-c1nsc2ccc(-n3c(=O)cc(C(F)(F)F)n(C)c3=O)cc12 [Example 577, Acetic acid, {{2-{5-[3,6-dihydro-3-methyl-2,6-dioxo-4-(trifluoromethyl)-1(2H)-pyrimidinyl]-1,2-benzisothiazol-3-yl}-p-tolyl}oxy}-, 2-oxobutyl ester] | 4.0 | 5.0 | 5.0 | 9.0 |  |  |  |  |  |  |  |  |  |  |  |  |  |  |  |  | herbicidal effect rating, CYPIR (Cyperus iria; [9]): 2.0; herbicidal effect rating, CYPIR (Cyperus iria; [10]): 4.0; herbicidal effect rating, CYPIR (Cyperus iria; [11]): 7.0; herbicidal effect rating, CYPIR (Cyperus iria; [12]): 9.0; herbicidal effect rating, ECHORC [1, 9]: 6.0; herbicidal effect rating, ECHORC [1, 10]: 7.0; herbicidal effect rating, ECHORC [1, 11]: 7.0; herbicidal effect rating, ECHORC [1, 12]: 9.0; herbicidal effect rating, CYPSE [3, 9]: 0.0; herbicidal effect rating, CYPSE [3, 10]: 3.0; herbicidal effect rating, CYPSE [3, 11]: 3.0; herbicidal effect rating, CYPSE [3, 12]: 3.0; herbicidal effect rating, SAGPY (Sagittaria pygmaea, L.; [9]): 4.0; herbicidal effect rating, SAGPY (Sagittaria pygmaea, L.; [10]): 6.0; herbicidal effect rating, SAGPY (Sagittaria pygmaea, L.; [11]): 6.0; herbicidal effect rating, SAGPY (Sagittaria pygmaea, L.; [12]): 6.0
